Source: patent US20100009967A1, “SOLID DOSAGE FORMULATIONS OF T[…]” (priority 2008, published 2010)

How the values were obtained:
[1] = 25° C./75% relative humidity
CGRP [2] = conditions: clinical trials, Olesen et al. 2004; cited from earlier work
CGRP [3] = conditions: control group, Petersen et al. 2005; cited from earlier work

O=C(N[C@@H]1CC[C@@H](c2cccc(F)c2F)CN(CC(F)(F)F)C1=O)N1CCC(n2c(=O)[nH]c3ncccc32)CC1 [spray-dried amorphous form]
Water content [1]: 18%

BIBN4096BS
efficacy in treating acute attacks of migraine (CGRP [2]): effective in treating acute attacks of migraine
prevention of headache induced by CGRP infusion (CGRP [3]): able to prevent headache induced by CGRP infusion
